Reference: ChEMBL document CHEMBL1125711, “Flavins as potential antimalarials. 2. 3-Methyl-10-(substituted-phenyl) flavins” (J Med Chem, 1991)

How the values were obtained:
[1] = system: Plasmodium vinckei vinckei; experiment: Antimalarial activity against Plasmodium vinckei V52 on 10 mg/kg intraperitoneal dose; assay type: functional
Mus musculus [2] = experiment: Increase in mean survival days was determined in mice after ip administration of 30 mg/kg; assay type: functional; conditions: route intraperitoneal
Mus musculus [3] = experiment: (§1) Increase in mean survival days was determined in mice after ip administration of 70 mg/kg; toxic; assay type: ADME, organism-based; parameters: dose 70 mg/kg, route intraperitoneal; conditions: in vivo
[4] = system: Plasmodium vinckei vinckei; experiment: Antimalarial activity against Plasmodium vinckei V52 on 30 mg/kg intraperitoneal dose; assay type: functional
Mus musculus [5] = experiment: Antimalarial activity was evaluated against Plasmodium vinckei V52 after intraperitoneal administration at dose 70 mg/kg; assay type: functional
Mus musculus [6] = experiment: Increase in mean survival days was determined in mice after ip administration of 10 mg/kg; assay type: functional; conditions: route intraperitoneal
Mus musculus [7] = experiment: Antimalarial activity was evaluated against Plasmodium vinckei vinckei V52 after intraperitoneal administration at dose 25 mg/kg; assay type: functional
[8] = system: Plasmodium vinckei vinckei; experiment: Antimalarial activity against Plasmodium vinckei V52 after 20 mg/kg intraperitoneal dose; assay type: functional
Mus musculus [9] = experiment: Increase in mean survival days was determined in mice after ip administration of 25 mg/kg; toxic; assay type: functional; conditions: route intraperitoneal
Mus musculus [10] = experiment: Increase in mean survival days was determined in mice after ip administration of 20 mg/kg; toxic; assay type: functional; conditions: route intraperitoneal
Mus musculus [11] = experiment: Increase in mean survival days was determined in mice after ip administration of 50 mg/kg; toxic; assay type: functional; conditions: route intraperitoneal
Mus musculus [12] = experiment: as §1; assay type: functional; conditions: route intraperitoneal
Mus musculus [13] = experiment: Antimalarial activity was evaluated against Plasmodium vinckei V52 after intraperitoneal administration at dose 25 mg/kg; assay type: functional
[14] = system: Plasmodium vinckei vinckei; experiment: Antimalarial activity against Plasmodium vinckei V52 on 70 mg/kg intraperitoneal dose; assay type: functional
Mus musculus [15] = experiment: Antimalarial activity was evaluated against Plasmodium vinckei vinckei V52 after intraperitoneal administration at dose 50 mg/kg.; assay type: functional
Mus musculus [16] = experiment: Antimalarial activity was evaluated against Plasmodium vinckei V52 after intraperitoneal administration at dose 15 mg/kg; assay type: functional
Mus musculus [17] = experiment: Increase in mean survival days was determined in mice after ip administration of 15 mg/kg; assay type: functional; conditions: route intraperitoneal
Mus musculus [18] = species on record: Mus musculus; experiment: Effective dose required to obtain a parasitaemia of 40% 48 hours after treatment in mice; assay type: functional
Mus musculus [19] = experiment: Antimalarial activity was evaluated against Plasmodium vinckei vinckeii V52 after intraperitoneal administration at dose 40 mg/kg; assay type: functional
[20] = system: Plasmodium vinckei vinckei; experiment: Antimalarial activity against Plasmodium vinckei vinckeii V52 at 15 mg/kg intraperitoneally dose; assay type: functional; conditions: route intraperitoneal
[21] = system: Plasmodium vinckei vinckei; experiment: Antimalarial activity against Plasmodium vinckei vinckeii V52 at 20 mg/kg intraperitoneally dose; assay type: functional; conditions: route intraperitoneal
Mus musculus [22] = experiment: Antimalarial activity was evaluated against Plasmodium vinckei vinckeii V52 after intraperitoneal administration at dose 50 mg/kg; assay type: functional
Mus musculus [23] = experiment: Antimalarial activity was evaluated against Plasmodium vinckei V52 after intraperitoneal administration at dose 30 mg/kg; assay type: functional
[24] = system: Plasmodium vinckei vinckei; experiment: Antimalarial activity against Plasmodium vinckei vinckeii V52 after 10 mg/kg intraperitoneally dose; assay type: functional; conditions: route intraperitoneal
Mus musculus [25] = experiment: Antimalarial activity was evaluated against Plasmodium vinckei vinckeii V52 after intraperitoneal administration at dose 25 mg/kg; assay type: functional
Mus musculus [26] = experiment: Antimalarial activity was evaluated against Plasmodium vinckei V52 after intraperitoneal administration at dose 10 mg/kg; assay type: functional
[27] = system: Plasmodium vinckei vinckei; experiment: Increase in mean survival days of Plasmodium inoculated mice (Mus musculus) after 70 mg/Kg intraperitoneal dose; assay type: functional
Mus musculus [28] = experiment: Increase in mean survival days was determined in mice after ip administration of 60 mg/kg; assay type: functional; conditions: route intraperitoneal
Mus musculus [29] = experiment: Antimalarial activity was evaluated against Plasmodium vinckei vinckeii V52 after intraperitoneal administration at dose 60 mg/kg; assay type: functional
Mus musculus [30] = experiment: Antimalarial activity was evaluated against Plasmodium vinckei vinckei V52 after intraperitoneal administration at dose 40 mg/kg; assay type: functional
Mus musculus [31] = experiment: Antimalarial activity was evaluated against Plasmodium vinckei V52 after intraperitoneal administration at dose 20 mg/kg; assay type: functional
Mus musculus [32] = experiment: Increase in mean survival days was determined in mice after ip administration of 20 mg/kg; assay type: functional; conditions: route intraperitoneal
Mus musculus [33] = experiment: Antimalarial activity was evaluated against Plasmodium vinckei vinckei V52 after intraperitoneal administration at dose 30 mg/kg; assay type: functional
Mus musculus [34] = experiment: Antimalarial activity was evaluated against Plasmodium vinckei vinckei V52 after intraperitoneal administration at dose 50 mg/kg; assay type: functional
Mus musculus [35] = experiment: Increase in mean survival days was determined in mice after ip administration of 40 mg/kg; assay type: functional; conditions: route intraperitoneal
Mus musculus [36] = experiment: Increase in mean survival days was determined in mice after ip administration of 50 mg/kg; assay type: functional; conditions: route intraperitoneal
Mus musculus [37] = experiment: Antimalarial activity was evaluated against Plasmodium vinckei V52 after intraperitoneal administration at dose 50 mg/kg; assay type: functional
Mus musculus [38] = experiment: Antimalarial activity was evaluated against Plasmodium vinckei vinckei V52 after intraperitoneal administration at dose 40 mg/kg.; assay type: functional
[39] = system: Plasmodium vinckei vinckei; experiment: Antimalarial activity against Plasmodium vinckei V52 after 30 mg/kg intraperitoneal dose
Mus musculus [40] = experiment: Increase in mean survival days was determined in mice after ip administration of 40 mg/kg; toxic; assay type: functional; conditions: route intraperitoneal
Mus musculus [41] = experiment: Increase in mean survival days was determined in mice after ip administration of 30 mg/kg; toxic; assay type: functional; conditions: route intraperitoneal

Row | SMILES | Cured [1] [%] | Mean survival days (Mus musculus [2]) [days] | Cured [4] [%] | Cured (Mus musculus [5]) [%] | Mean survival days (Mus musculus [6]) [days] | Cured [8] [%] | Mean survival days (Mus musculus [12]) [days] | Cured [14] [%] | Cured (Mus musculus [16]) [%] | Mean survival days (Mus musculus [17]) [days] | ED40 (Mus musculus [18]) [µmol/kg] | other results
1 | Cn1c(=O)nc2n(-c3cc(Cl)ccc3Cl)c3ccccc3nc-2c1=O | 0 | 0 | 0 | 0 | 0 |  |  |  |  |  |  | Mean survival days (Mus musculus [3]): -0.6 days
2 | CCc1ccccc1-n1c2nc(=O)n(C)c(=O)c-2nc2ccccc21 | 0 |  |  |  | 0 | 0 |  |  |  |  |  | Cured (Mus musculus [7]): 0%; Mean survival days (Mus musculus [9]): -2 days; Mean survival days (Mus musculus [10]): -2 days
3 | Cn1c(=O)nc2n(-c3ccc(Cl)cc3)c3ccccc3nc-2c1=O | 20 |  | 100 |  | 0.3 | 100 | -1 | 0 | 80 | 4 | 38.8 | Mean survival days (Mus musculus [11]): -0.8 days; Cured (Mus musculus [13]): 100%; Cured (Mus musculus [15]): 20%; Cured (Mus musculus [19]): 100%
4 | Cn1c(=O)nc2n(-c3ccc(Br)cc3)c3ccccc3nc-2c1=O |  |  |  | 0 |  |  |  |  |  |  | 38.4 | Cured [20]: 100%; Cured [21]: 100%; Cured (Mus musculus [22]): 40%; Cured (Mus musculus [23]): 100%; Cured [24]: 0%; Cured (Mus musculus [25]): 100%
5 | Cn1c(=O)nc2n(-c3cccc([N+](=O)[O-])c3)c3ccccc3nc-2c1=O |  |  |  | 0 |  |  |  |  |  |  |  | Cured (Mus musculus [26]): 0%; Mean survival days [27]: -0.5 days; Cured (Mus musculus [23]): 0%; Mean survival days (Mus musculus [28]): 1 days; Cured (Mus musculus [29]): 0%
6 | Cc1cc(Cl)cc(-n2c3nc(=O)n(C)c(=O)c-3nc3ccccc32)c1 | 0 |  |  |  | 0.2 |  |  | 100 | 60 | 0.5 | 85.7 | Cured (Mus musculus [7]): 100%; Cured (Mus musculus [30]): 100%; Cured (Mus musculus [31]): 80%; Mean survival days (Mus musculus [32]): 1 days; Cured (Mus musculus [33]): 100%; Cured (Mus musculus [34]): 100%
7 | Cn1c(=O)nc2n(-c3ccc(F)cc3)c3ccccc3nc-2c1=O | 0 | 0 | 80 |  | 0 | 0 | -0.6 | 0 | 0 | 0 | 103 | Mean survival days (Mus musculus [35]): 0 days; Mean survival days (Mus musculus [36]): -0.5 days; Cured (Mus musculus [37]): 20%; Mean survival days (Mus musculus [32]): 13.4 days; Cured (Mus musculus [38]): 80%
8 | Cc1ccc(-n2c3nc(=O)n(C)c(=O)c-3nc3ccccc32)c(C)c1 | 0 | 1.3 |  |  | 0.4 |  | -2 | 0 |  |  |  | Mean survival days (Mus musculus [11]): -2 days; Cured (Mus musculus [30]): 40%; Cured [39]: 20%; Mean survival days (Mus musculus [40]): -1.7 days; Cured (Mus musculus [34]): 0%
9 | Cc1ccccc1-n1c2nc(=O)n(C)c(=O)c-2nc2ccccc21 | 0 |  | 0 |  | -0.2 | 0 |  |  |  |  |  | Mean survival days (Mus musculus [41]): -2 days; Mean survival days (Mus musculus [10]): -1 days
